Counter-ions that a name gives are not always drawn.
Columns and labels:
BIR3 domain of XIAP = BIR3 domain of XIAP (Homo sapiens (Human), UniProt P98170); assay: TR-FRET assay for BIR3 (inhibition of binding of XIAP BIR3 domain to SMAC-derived Peptide A); details: 6x His-tagged BIR3 domain (aa 241-356 of XIAP) 10 nM, Peptide A 20 nM, TR-FRET
BIR2 domain of XIAP = BIR2 domain of XIAP (Homo sapiens (Human), UniProt P98170, C202A/C213G); assay: TR-FRET assay for BIR2 (inhibition of binding of XIAP BIR2 domain to SMAC-derived Peptide A); details: 6x His-tagged BIR2 domain (aa 124-240 of XIAP) 10 nM, Peptide A 20 nM, TR-FRET; read-out: IC50 BIR2
Sequence of BIR2 domain of XIAP (P98170 124-240 with tags or gaps C202A/C213G limits assumed): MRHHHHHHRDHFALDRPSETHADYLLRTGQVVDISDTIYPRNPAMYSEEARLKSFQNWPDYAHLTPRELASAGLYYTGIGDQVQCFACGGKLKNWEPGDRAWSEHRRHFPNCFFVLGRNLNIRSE

Sequence of BIR3 domain of XIAP (P98170 241-356 with tags or gaps limits assumed): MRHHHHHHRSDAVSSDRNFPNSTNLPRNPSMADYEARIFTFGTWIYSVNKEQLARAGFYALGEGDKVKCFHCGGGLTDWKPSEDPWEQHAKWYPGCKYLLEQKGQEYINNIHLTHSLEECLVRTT

IC50 (BIR3 domain of XIAP)	IC50 (BIR2 domain of XIAP)	Structure (SMILES)
48000 nM	30 nM	CN[C@@H](C)C(=O)N[C@H]1CN(C(=O)c2ccc(F)cc2)c2ccccc2N(Cc2c(C)ccc3ccccc23)C1=O [Example 96i]
21800 nM	6 nM	CN[C@@H](C)C(=O)N[C@H]1CN(C(=O)c2cccc(C#N)c2)c2ccccc2N(Cc2c(OC)ccc3cc(Br)ccc23)C1=O [Example 90c]
> 50000 nM	177 nM	CN[C@@H](C)C(=O)N[C@H]1CN(S(=O)(=O)c2ccc(OC)cc2)c2ccccc2N(Cc2c(C)ccc3ccccc23)C1=O [Example 98f]
29000 nM	182 nM	CN[C@@H](C)C(=O)N[C@H]1CN(S(=O)(=O)c2ccc([N+](=O)[O-])cc2)c2ccccc2N(Cc2c(C)ccc3ccccc23)C1=O [Example 98d]
> 54800 nM	188 nM	CN[C@@H](C)C(=O)N[C@H]1CN(S(=O)(=O)NC)c2ccccc2N(Cc2c(C)ccc3ccccc23)C1=O [Example 98b]

The remaining lines, values behind:

Structure (SMILES)	IC50 (BIR3 domain of XIAP)	IC50 (BIR2 domain of XIAP)
CN[C@@H](C)C(=O)N[C@H]1CN(C(=O)COCCOC)c2ccccc2N(Cc2c(C)ccc3ccccc23)C1=O [Example 10, (S)—N—[(S)-5-[2-(2-methoxy-ethoxy)-acetyl]-1-(2-methyl-naphthalen-1-ylmethyl)-2-oxo-2,3,4,5-tetrahydro-1H-benzo[b][1,4]diazepin-3-yl]-2-methylamino-propionamide hydrochloride]	> 54800 nM	364 nM
CN[C@@H](C)C(=O)N[C@H]1CN(C(=O)c2ccc(C(C)=O)cc2)c2ccccc2N(Cc2c(OC)ccc3cc(C(=O)O)ccc23)C1=O [Example 44, 5-[[(3S)-1-(4-acetylbenzoyl)-3-[[(2S)-2-(methylamino)propanoyl]amino]-4-oxo-2,3-dihydro-1,5-benzodiazepin-5-yl]methyl]-6-methoxy-naphthalene-2-carboxylic acid; hydrochloride]	17400 nM	16 nM
CC[C@H](NC)C(=O)NC1C(=O)N(Cc2c(OC)ccc3ccccc23)c2ccccc2N(CC23CC4CC(CC(C4)C2)C3)C1=O (stereo partly drawn) [Example 113, (2S)-N-[5-(1-adamantylmethyl)-1-[(2-methoxynaphthalen-1-yl)methyl]-2,4-dioxo-1,5-benzodiazepin-3-yl]-2-(methylamino)butanamide]	> 54800 nM	324 nM
CN[C@@H](C)C(=O)N[C@H]1CN(C(=O)c2ccc(C(C)=O)cc2)c2ccccc2N(Cc2nn(-c3ccccc3C#N)c3ccccc23)C1=O [Example 120, (S)-N-((S)-5-(4-acetylbenzoyl)-1-((1-(2-cyanophenyl)-1H-indazol-3-yl)methyl)-2-oxo-2,3,4,5-tetrahydro-1H-benzo[b][1,4]diazepin-3-yl)-2-(methylamino)propanamide 2,2,2-trifluoroacetate]	> 54800 nM	6.28 nM
CN[C@@H](C)C(=O)N[C@H]1CN(C(=O)c2ccc(C#N)cc2)c2cc(Cl)ccc2N(Cc2c(OCC(F)(F)F)ccc3cc(Br)ccc23)C1=O [Example 135, (S)-N-((S)-1-((6-bromo-2-(2,2,2-trifluoroethoxy)naphthalen-1-yl)methyl)-7-chloro-5-(4-cyanobenzoyl)-2-oxo-2,3,4,5-tetrahydro-1H-benzo[b][1,4]diazepin-3-yl)-2-(methylamino)propanamide hydrochloride]	36200 nM	32 nM
CN[C@@H](C)C(=O)N[C@H]1CN(C(C)=O)c2cc(C#N)ccc2N(Cc2c(OC)ccc3c(C#N)cccc23)C1=O [Example 182, (S)-N-((S)-5-acetyl-7-cyano-1-((5-cyano-2-methoxynaphthalen-1-yl)methyl)-2-oxo-2,3,4,5-tetrahydro-1H-benzo[b][1,4]diazepin-3-yl)-2-(methylamino)propanamide]	32400 nM	23.5 nM
CN[C@@H](C)C(=O)N[C@H]1CN(C(=O)CS(C)(=O)=O)c2cc(C#N)ccc2N(Cc2c(OC)ccc3ccccc23)C1=O [Example 166, (S)-N-((S)-7-cyano-1-((2-methoxynaphthalen-1-yl)methyl)-5-(2-(methylsulfonyl)acetyl)-2-oxo-2,3,4,5-tetrahydro-1H-benzo[b][1,4]diazepin-3-yl)-2-(methylamino)propanamide hydrochloride]	43600 nM	20 nM
CN[C@@H](C)C(=O)N[C@H]1CN(C(=O)c2ccc(NC(C)=O)cc2)c2ccccc2N(Cc2c(OC)ccc3ccccc23)C1=O [Example 42, (S)—N—[(S)-5-(4-Acetylamino-benzoyl)-1-(2-methoxy-naphthalen-1-ylmethyl)-2-oxo-2,3,4,5-tetrahydro-1H-benzo[b][1,4]diazepin-3-yl]-2-methylamino-propionamide hydrochloride]	> 54800 nM	37 nM
CN[C@@H](C)C(=O)N[C@H]1CN2C(=O)CCNC(=O)c3ccc4c(c(OC)ccc4c3)CN(C1=O)c1ccccc12 [Example 63, Cyclic-5-[(S)-5-(3-Amino-propionyl)-3-((S)-2-methylamino-propionylamino)-2-oxo-2,3,4,5-tetrahydro-benzo[b][1,4]diazepin-1-ylmethyl]-6-methoxy-naphthalene-2-carboxylic amide hydrochloride]	43000 nM	19 nM
CN[C@@H](C)C(=O)N[C@H]1CN(C(=O)c2ccc(C(=O)OC)cc2)c2ccccc2N(Cc2c(C)ccc3ccccc23)C1=O [Example 96a, 4-[(S)-3-((S)-2-Methylamino-propionylamino)-5-(2-methyl-naphthalen-1-ylmethyl)-4-oxo-2,3,4,5-tetrahydro-benzo[b][1,4]diazepine-1-carbonyl]-benzoic acid methyl ester hydrochloride]	> 54800 nM	99 nM
CN[C@@H](C)C(=O)N[C@H]1CN(C(=O)CS(C)(=O)=O)c2cc(C(F)(F)F)ccc2N(Cc2c(C3CC3)cnc3ccccc23)C1=O [Example 187, (S)-N-((S)-1-((3-cyclopropylquinolin-4-yl)methyl)-5-(2-(methylsulfonyl)acetyl)-2-oxo-7-(trifluoromethyl)-2,3,4,5-tetrahydro-1H-benzo[b][1,4]diazepin-3-yl)-2-(methylamino)propanamide]	34400 nM	49.3 nM
CC[C@H](NCCO)C(=O)NC1C(=O)N(Cc2c(OC)ccc3c(Br)cccc23)c2ccccc2N(c2ccccc2)C1=O (stereo partly drawn) [Example 138, (2S)-N-(1-((5-bromo-2-methoxynaphthalen-1-yl)methyl)-2,4-dioxo-5-phenyl-2,3,4,5-tetrahydro-1H-benzo[b][1,4]diazepin-3-yl)-2-(2-hydroxyethylamino)butanamide]	> 54800 nM	69.4 nM
CN[C@@H](C)C(=O)N[C@H]1CN(C(=O)CCN)c2ccccc2N(Cc2c(OC)ccc3cc(C(=O)OC)ccc23)C1=O [Example 61, 5-[(S)-5-(3-Amino-propionyl)-3-((S)-2-methylamino-propionylamino)-2-oxo-2,3,4,5-tetrahydro-benzo[b][1,4]diazepin-1-ylmethyl]-6-methoxy-naphthalene-2-carboxylic acid methyl ester hydrochloride]	> 54800 nM	72 nM
CN[C@@H](C)C(=O)N[C@H]1CN(C(=O)c2ccc(N)cc2)c2ccccc2N(Cc2c(C)ccc3ccccc23)C1=O [Example 67, (S)—N—((S)-5-(4-aminobenzoyl)-1-((2-methylnaphthalen-1-yl)methyl)-2-oxo-2,3,4,5-tetrahydro-1H-benzo[b][1,4]diazepin-3-yl)-2-(methylamino)propanamide hydrochloride]	> 54800 nM	22 nM
CN[C@@H](C)C(=O)N[C@H]1CN(C(=O)CN2CCN(C)CC2)c2ccccc2N(Cc2c(C)ccc3ccccc23)C1=O [Example 12, (S)-2-methylamino-N—{(S)-1(2-methyl-naphthalen-1-ylmethyl)-5-[2-(4-methyl-piperazin-1-yl)-acetyl]-2-oxo-2,3,4,5-tetrahydro-1H-benzo[b][1,4]diazepin-3-yl}-propionamide hydrochloride]	> 54800 nM	820 nM
CN[C@@H](C)C(=O)N[C@H]1CN(C(=O)c2ccc(N)cc2)c2ccccc2N(Cc2c(OCCF)ccc3ccccc23)C1=O [Example 178, (2S)-N-[(3S)-1-(4-aminobenzoyl)-5-[[2-(2-fluoroethoxy)naphthalen-1-yl]methyl]-4-oxo-2,3-dihydro-1,5-benzodiazepin-3-yl]-2-(methylamino)propanamide;hydrochloride]	16100 nM	14.2 nM
CN[C@@H](C)C(=O)N[C@H]1CN(C(=O)CCCC(C)=O)c2ccccc2N(Cc2c(OC)ccc3cc(C(=O)O)ccc23)C1=O [Example 47, 6-Methoxy-5-[(S)-3 ((S)-2-methylamino-propionylamino)-2-oxo-5-(5-oxo-hexanoyl)-2,3,4,5-tetrahydro-benzo[b][1,4]diazepin-1-ylmethyl]-naphthalene-2-carboxylic acid hydrochloride]	44600 nM	20 nM
CN[C@@H](C)C(=O)N[C@H]1CN(C(C)=O)c2cc(C(F)(F)F)ccc2N(Cc2c(C3CC3)ccc3c(C#N)cccc23)C1=O [Example 189, (S)-N-((S)-5-acetyl-1-((5-cyano-2-cyclopropylnaphthalen-1-yl)methyl)-2-oxo-7-(trifluoromethyl)-2,3,4,5-tetrahydro-1H-benzo[b][1,4]diazepin-3-yl)-2-(methylamino)propanamide]	29300 nM	30.4 nM
CN[C@@H](C)C(=O)N[C@H]1CN(C(=O)CCCN)c2ccccc2N(Cc2c(OC)ccc3cc(C(=O)OC)ccc23)C1=O [Example 49, 5-[(S)-5-(4-Amino-butyryl)-3-((S)-2-methylamino-propionylamino)-2-oxo-2,3,4,5-tetrahydro-benzo[b][1,4]diazepin-1-ylmethyl]-6-methoxy-naphthalene-2-carboxylic acid methyl ester hydrochloride]	> 54800 nM	127 nM
